pIC50: −log10 of the molar value.
Tested on: Aβ42 release
Test: Aβ release in cells stably expressing APPswe, Meso Scale Discovery electrochemiluminescence assay
Format: cell-based, Human
Conditions: Homo sapiens, SH-SY5Y, HEK or SH-SY5Y cells stably expressing APPswe, 4-6 hours incubation with test compound
Experimental: The level of activity of the compounds on Aβ release was tested using the following method:
Compounds were diluted in 100% DMSO and stored at […] prior to use. Human Embryonic Kidney (HEK) or Human Neuroblastoma (SH-SY5Y) cell lines stably expressing APP with the Swedish mutation (APPswe) were cultured using Dulbecco's Modified Eagles medium (DMEM) supplied with […] glucose, Na-pyruvate and GlutaMAX with 10% FBS, 100 U/ml penicillin-streptomycin (PEST) respectively, 1× non-essential amino acids (NEAA), […] Hepes, 100 μg/ml Zeocine. Cells at about 80% confluence were washed with PBS, detached from culture flasks using 1× Trypsin/EDTA diluted in PBS, re-suspended in cell media and plated in 384-well poly-d-lysine coated cell culture plates at about 10000-15000 cells/well, in 25 μL cell media. Optionally, cryo-preserved cells (frozen and stored at −140° C. in 90% cell media and 10% DMSO) were thawed, washed and plated as above. Next the cells were incubated for 15-24 h at 37° C. and 5% CO2, after which cell medium was changed. Fresh medium containing test compound diluted ×200 from prepared compound plate was added to the cells before further incubation for 4-6 hours at 37° C. and 5% CO2. After incubation with test compound the amount of Aβ peptides, including Aβ42, Aβ40, Aβ39, Aβ38 and Aβ37, secreted to the cell medium was analyzed using the electrochemiluminescence assay technology from Meso Scale Discovery Technology, in combination with specific antibodies raised against the different Aβ peptides. Potential cytotoxic effects of the compounds were usually assayed by measuring the ATP content (ViaLight) from cell lysate.

SMILES	pIC50
CCN(CC1CCCO1)c1nc(Nc2ccc(-c3cnco3)cc2)nc2c1CN(C)CC2 (centres unmarked) [Example 82, N4-Ethyl-6-methyl-N2-(4-(oxazol-5-yl)phenyl)-N4-((tetrahydrofuran-2-yl)methyl)-5,6,7,8-tetrahydropyrido[4,3-d]pyrimidine-2,4-diamine]	6.50
CC(=O)N1CCc2nc(Nc3ccc(-n4ccnc4C)cc3)nc(CC3CCOCC3)c2C1 [Example 63, 1-(2-(4-(2-Methyl-1H-imidazol-1-yl)phenylamino)-4-((tetrahydro-2H-pyran-4-yl)methyl)-7,8-dihydropyrido[4,3-d]pyrimidin-6(5H)-yl)ethanone]	4.30
Cc1nccn1-c1ccc(Nc2nc(CCc3cccc(F)c3)c3c(n2)CCN(C)C3)cc1 [Example 51, 4-(3-Fluorophenethyl)-6-methyl-N-(4-(2-methyl-1H-imidazol-1-yl)phenyl)-5,6,7,8-tetrahydropyrido[4,3-d]pyrimidin-2-amine]	6.60
COc1cc(Nc2nc3c(c(C(C)n4nc(C)cc4C)n2)COCC3)ccc1-n1cnc(C)c1 (centres unmarked) [Example 104, 4-(1-(3,5-Dimethyl-1H-pyrazol-1-yl)ethyl)-N-(3-methoxy-4-(4-methyl-1H-imidazol-1-yl)phenyl)-7,8-dihydro-5H-pyrano[4,3-d]pyrimidin-2-amine]	6.70
Cc1ccc(Cc2nc(Nc3ccc(-n4ccnc4C)cc3)nc3c2CN(CCO)CC3)cc1 [Example 48, 2-(2-(4-(2-Methyl-1H-imidazol-1-yl)phenylamino)-4-(4-methylbenzyl)-7,8-dihydropyrido[4,3-d]pyrimidin-6(5H)-yl)ethanol]	6.70
Cc1nccn1-c1ccc(Nc2nc3c(c(NC[C@@H]4CCCO4)n2)CN(C)CC3)cc1 [Example 73, (S)-6-Methyl-N2-(4-(2-methyl-1H-imidazol-1-yl)phenyl)-N4-((tetrahydrofuran-2-yl)methyl)-5,6,7,8-tetrahydropyrido[4,3-d]pyrimidine-2,4-diamine]	6.10
COc1cccc(Cc2nc(Nc3ccc(-n4ccnc4C)cc3)nc3c2CN(CCO)CC3)c1 [Example 57, 2-(4-(3-Methoxybenzyl)-2-(4-(2-methyl-1H-imidazol-1-yl)phenylamino)-7,8-dihydropyrido[4,3-d]pyrimidin-6(5H)-yl)ethanol]	6.40
COC(=O)N1CCc2nc(Nc3ccc(-c4cnco4)cc3)nc(N(CCO)c3ccccc3)c2C1 [Example 23, Methyl 4-((2-hydroxyethyl)(phenyl)amino)-2-(4-(oxazol-5-yl)phenylamino)-7,8-dihydropyrido[4,3-d]pyrimidine-6(5H)-carboxylate]	5.20
Cc1nccn1-c1ccc(Nc2nc3c(c(CC4CCOCC4)n2)CN(C)CC3)cc1 [Example 61, 6-Methyl-N-(4-(2-methyl-1H-imidazol-1-yl)phenyl)-4-((tetrahydro-2H-pyran-4-yl)methyl)-5,6,7,8-tetrahydropyrido[4,3-d]pyrimidin-2-amine]	5.00
CC(=O)N1CCc2nc(Nc3ccc(-c4cnco4)cc3)nc(N3c4ccccc4C[C@H]3CO)c2C1 [Example 30]	6.00
CC(=O)N1CCc2nc(Nc3ccc(-c4cnco4)cc3)nc(Nc3cccc(CO)c3)c2C1 [Example 29, 1-(4-(3-(Hydroxymethyl)phenylamino)-2-(4-(oxazol-5-yl)phenylamino)-7,8-dihydropyrido[4,3-d]pyrimidin-6(5H)-yl)ethanone]	6.20
c1ccc(COc2nc(Nc3ccc(-c4cnco4)cc3)nc3c2CNCC3)cc1 [Example 12, 4-(Benzyloxy)-N-(4-(oxazol-5-yl)phenyl)-5,6,7,8-tetrahydropyrido[4,3-d]pyrimidin-2-amine]	5.40
Cc1nccn1-c1ccc(Nc2nc3c(c(CC4CCCC4)n2)CN(C)CC3)cc1 [Example 55, 4-(Cyclopentylmethyl)-6-methyl-N-(4-(2-methyl-1H-imidazol-1-yl)phenyl)-5,6,7,8-tetrahydropyrido[4,3-d]pyrimidin-2-amine]	6.50
Cc1nccn1-c1ccc(Nc2nc(CCC3CCCCC3)c3c(n2)CCN(CCO)C3)cc1 [Example 47, 2-(4-(2-Cyclohexylethyl)-2-(4-(2-methyl-1H-imidazol-1-yl)phenylamino)-7,8-dihydropyrido[4,3-d]pyrimidin-6(5H)-yl)ethanol]	7.10
COc1cc(Nc2nc3c(c(Cc4ccc(F)cc4)n2)C[S+]([O-])CC3)ccc1-n1cnc(C)c1 (centres unmarked) [Example 44, 4-(4-Fluorobenzyl)-N-[3-methoxy-4-(4-methyl-1H-imidazol-1-yl)phenyl]-7,8-dihydro-5H-thiopyrano[4,3-d]pyrimidin-2-amine 6-oxide]	7.10
Cc1nccn1-c1ccc(Nc2nc3c(c(CC4CCOCC4)n2)COCC3)cc1 [Example 67, N-(4-(2-Methyl-1H-imidazol-1-yl)phenyl)-4-((tetrahydro-2H-pyran-4-yl)methyl)-7,8-dihydro-5H-pyrano[4,3-d]pyrimidin-2-amine]	5.00
CC(=O)N1CCc2nc(Nc3ccc(-c4cnco4)cc3)nc(NC3(CO)CCCC3)c2C1 [Example 35, 1-(4-(1-(Hydroxymethyl)cyclopentylamino)-2-(4-(oxazol-5-yl)phenylamino)-7,8-dihydropyrido[4,3-d]pyrimidin-6(5H)-yl)ethanone]	5.50
COc1cc(Nc2nc3c(c(C(C)(C)O)n2)COCC3)ccc1-n1cnc(C)c1 [Example 103, 2-(2-(3-Methoxy-4-(4-methyl-1H-imidazol-1-yl)phenylamino)-7,8-dihydro-5H-pyrano[4,3-d]pyrimidin-4-yl)propan-2-ol]	7.00
CC(=O)N1CCc2nc(Nc3ccc(-c4cnco4)cc3)nc(N(C)c3ccc(F)cc3)c2C1 [Example 89, 1-(4-((4-Fluorophenyl)(methyl)amino)-2-(4-(oxazol-5-yl)phenylamino)-7,8-dihydropyrido[4,3-d]pyrimidin-6(5H)-yl)ethanone]	6.20
Cc1nccn1-c1ccc(Nc2nc3c(c(N(C)C4CCCCC4)n2)CN(C)CC3)cc1 [Example 11, N4-Cyclohexyl-N4,6-dimethyl-N2-(4-(2-methyl-1H-imidazol-1-yl)phenyl)-5,6,7,8-tetrahydropyrido[4,3-d]pyrimidine-2,4-diamine]	6.40
CC(=O)N1CCc2nc(Nc3ccc(-c4cnco4)cc3)nc(N(C)CC(O)c3ccccc3)c2C1 (centres unmarked) [Example 34, 1-(4-((2-Hydroxy-2-phenylethyl)(methyl)amino)-2-(4-(oxazol-5-yl)phenylamino)-7,8-dihydropyrido[4,3-d]pyrimidin-6(5H)-yl)ethanone]	5.50
Cc1nccn1-c1ccc(Nc2nc3c(c(Cc4ccc(F)cc4)n2)CC(C(F)(F)F)CC3)cc1 (centres unmarked) [Example 99, 4-(4-Fluorobenzyl)-N-(4-(2-methyl-1H-imidazol-1-yl)phenyl)-6-(trifluoromethyl)-5,6,7,8-tetrahydroquinazolin-2-amine]	6.50
COc1cc(Nc2nc3c(c(CCN4CCCC4=O)n2)COCC3)ccc1-n1cnc(C)c1 [Example 110, 1-(2-(2-(3-Methoxy-4-(4-methyl-1H-imidazol-1-yl)phenylamino)-7,8-dihydro-5H-pyrano[4,3-d]pyrimidin-4-yl)ethyl)pyrrolidin-2-one]	5.60
C[C@H](O)C(=O)N1CCc2nc(Nc3ccc(-c4cnco4)cc3)nc(N(CCO)c3ccccc3)c2C1 [Example 20, (S)-2-Hydroxy-1-(4-((2-hydroxyethyl)(phenyl)amino)-2-(4-(oxazol-5-yl)phenylamino)-7,8-dihydropyrido[4,3-d]pyrimidin-6(5H)-yl)propan-1-one]	6.00
CC(=O)N1CCc2nc(Nc3ccc(-c4cnco4)cc3)nc(N(C)Cc3cccnc3)c2C1 [Example 36, 1-(4-(Methyl(pyridin-3-ylmethyl)amino)-2-(4-(oxazol-5-yl)phenylamino)-7,8-dihydropyrido[4,3-d]pyrimidin-6(5H)-yl)ethanone]	5.30
Cc1nccn1-c1ccc(Nc2nc3c(c(Cc4ccccc4)n2)COCC3)cc1 [Example 45, 4-Benzyl-N-(4-(2-methyl-1H-imidazol-1-yl)phenyl)-7,8-dihydro-5H-pyrano[4,3-d]pyrimidin-2-amine]	6.20
OCCN1CCc2nc(Nc3ccc(-c4cnco4)cc3)nc(NCC3CCOCC3)c2C1 [Example 86, 2-(2-(4-(Oxazol-5-yl)phenylamino)-4-((tetrahydro-2H-pyran-4-yl)methylamino)-7,8-dihydropyrido[4,3-d]pyrimidin-6(5H)-yl)ethanol]	6.30
CN1CCc2nc(Nc3ccc(-c4cnco4)cc3)nc(NC[C@@H]3CCCO3)c2C1 [Example 83, (S)-6-Methyl-N2-(4-(oxazol-5-yl)phenyl)-N4-((tetrahydrofuran-2-yl)methyl)-5,6,7,8-tetrahydropyrido[4,3-d]pyrimidine-2,4-diamine]	6.80
Cc1nccn1-c1ccc(Nc2nc3c(c(Cc4ccccc4F)n2)CN(C)CC3)cc1 [Example 52, 4-(2-Fluorobenzyl)-6-methyl-N-(4-(2-methyl-1H-imidazol-1-yl)phenyl)-5,6,7,8-tetrahydropyrido[4,3-d]pyrimidin-2-amine]	6.50

Reference: patent publication US8188101B2 (AstraZeneca AB, priority 2008, dated 2012)
